# Marks after values point to notes of the source that are not given here. No end group written: not given here. *: point of attachment. dPhe(β-Ph) = β-phenyl D-Phe (N-terminal, N-acetylated), CC(=O)N[C@@H](C(=O)*)C(c1ccccc1)c1ccccc1
# Assays:
# ECE-1 [1] = target: T1, ECE-1 (Rattus norvegicus, UniProt P42893); assay: ECE-1 activity in plasma membrane fraction of rat lung tissue (conversion of 125I Big ET-1 to 125I ET-1); type: biochemical
# T1 construct: The endogenous ECE from the plasma membrane fraction converted the; from tissue; host or cells: rat lung tissue, plasma membrane fraction
# T1 sequence (P42893 1-762): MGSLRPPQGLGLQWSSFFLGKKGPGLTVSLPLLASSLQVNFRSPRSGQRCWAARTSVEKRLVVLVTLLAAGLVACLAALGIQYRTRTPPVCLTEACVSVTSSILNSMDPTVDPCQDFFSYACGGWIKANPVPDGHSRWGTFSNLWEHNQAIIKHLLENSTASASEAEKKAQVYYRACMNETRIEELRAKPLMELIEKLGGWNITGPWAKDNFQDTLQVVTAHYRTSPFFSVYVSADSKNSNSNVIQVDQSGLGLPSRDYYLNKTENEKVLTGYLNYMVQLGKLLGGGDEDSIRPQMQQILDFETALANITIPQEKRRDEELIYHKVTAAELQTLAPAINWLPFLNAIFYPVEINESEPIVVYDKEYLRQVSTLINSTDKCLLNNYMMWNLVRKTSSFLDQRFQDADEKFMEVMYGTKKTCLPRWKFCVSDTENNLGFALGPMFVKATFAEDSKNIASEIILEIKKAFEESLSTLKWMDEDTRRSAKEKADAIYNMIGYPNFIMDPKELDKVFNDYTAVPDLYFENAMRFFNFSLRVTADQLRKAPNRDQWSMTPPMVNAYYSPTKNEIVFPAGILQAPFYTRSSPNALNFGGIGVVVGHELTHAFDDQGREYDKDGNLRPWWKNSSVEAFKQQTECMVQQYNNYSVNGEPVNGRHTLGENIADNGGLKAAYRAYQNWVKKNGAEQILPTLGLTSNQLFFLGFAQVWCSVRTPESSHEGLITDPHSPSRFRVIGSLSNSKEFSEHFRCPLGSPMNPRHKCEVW
# Experimental: (§1) Fractions were incubated at 37° C. and collected at various time periods ranging from 5 minutes to 24 hours. […] Values represent the mean±SEM for data obtained from replicate samples. Statistical significance of mean [ET-1] among different time periods in HNPE cells as determined by one-way ANOVA and Student-Newman-Keuls multiple comparison test at p<0.05 (5 min n=3; 10 min n=6; 180 min n=9; 24 hrs n=4). Values that were statistically different are identified with an asterisk (“*”). Statistical significance of mean [ET−1] among different time periods in rat lung tissue as determined by one-way ANOVA and Student-Newman-Keuls multiple comparison test at p<0.05 (n=6 for 180 minutes; n=4 for other time periods) and denoted with a cross (“†”). It should be noted that the regression analysis (“r^2”) and line equation (“y=m×+b”) for percent ECE-1 activity were calculated based on a line graph with equal scale on the X axis ranging from 0-1500 minutes.
# (§2) Briefly, plasma membrane fractions (e.g. 20 μg total protein) of HNPE cells and rat lung tissue were incubated with 80 fmoles/mg protein of ^125I Big ET-1 for 180 minutes. […] However, each of the samples was divided into two groups: a control; and the CGS 26303 treated group. […] The data were analyzed statistically by one-way ANOVA, and those values that show a significant difference (p<0.05 level) are identified with an asterisk (*).
# ECE-1 [2] = target: T2, ECE-1 (Homo sapiens, UniProt P42892); assay: ECE-1 activity in plasma membrane fraction of HNPE cells (conversion of 125I Big ET-1 to 125I ET-1); type: biochemical
# T2 construct: The endogenous ECE from the plasma membrane fraction converted the; endogenous in cells; host or cells: HNPE cells (human non-pigmented ciliary epithelial), plasma membrane fraction
# T2 sequence (P42892 1-770): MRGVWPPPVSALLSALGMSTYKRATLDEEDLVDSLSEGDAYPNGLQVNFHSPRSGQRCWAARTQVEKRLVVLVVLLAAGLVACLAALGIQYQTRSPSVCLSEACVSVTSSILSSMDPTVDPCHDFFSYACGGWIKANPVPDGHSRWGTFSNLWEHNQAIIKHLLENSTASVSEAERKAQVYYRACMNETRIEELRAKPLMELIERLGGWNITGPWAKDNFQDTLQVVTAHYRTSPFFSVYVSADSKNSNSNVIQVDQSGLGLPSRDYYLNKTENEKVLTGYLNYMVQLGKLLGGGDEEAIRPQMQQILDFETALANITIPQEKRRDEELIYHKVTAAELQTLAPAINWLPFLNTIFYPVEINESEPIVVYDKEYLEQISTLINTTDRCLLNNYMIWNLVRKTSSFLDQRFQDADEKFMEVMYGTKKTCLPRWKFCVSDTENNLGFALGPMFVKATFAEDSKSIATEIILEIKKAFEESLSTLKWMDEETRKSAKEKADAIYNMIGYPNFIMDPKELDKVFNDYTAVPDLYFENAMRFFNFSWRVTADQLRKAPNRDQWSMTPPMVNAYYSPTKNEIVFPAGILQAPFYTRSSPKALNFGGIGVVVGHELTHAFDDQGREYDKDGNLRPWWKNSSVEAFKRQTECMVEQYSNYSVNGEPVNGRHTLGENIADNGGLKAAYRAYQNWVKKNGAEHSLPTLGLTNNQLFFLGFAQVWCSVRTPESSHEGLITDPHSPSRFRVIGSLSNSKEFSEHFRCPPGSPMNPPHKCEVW
# Experimental: as §1, §2
# [3] = test system: human non-pigmented ciliary epithelial (HNPE) cells; assay: Nitric oxide release from HNPE cells (nitrite, Griess colorimetric assay); type: cell-based; conditions: pre-treated with PD-142893 (1 μM) 30 minutes, then 100 nM ET-1, 24 hours; vs ET-1 alone
# Experimental: The effect of endothelin-1 (ET-1) and PD-142893, an ETA/B receptor antagonist, on nitric oxide (“NO”) release from human non-pigmented ciliary epithelial (HNPE) cells are illustrated in FIG. 6. The NO released into the culture media from HNPE cells grown in 24-well plates and treated with ET-1 (100 nM) for 24 hours was converted to nitrites. The total amount of nitrites was measured using the Griess colorimetric assay. HNPE cells were pre-treated with PD-142893 (1 μM) for 30 minutes and then 100 nM ET-1 was also added and incubated for 24 hours. The values in FIG. 6 represent the mean±SEM of a ratio between the nitrite produced under experimental conditions divided by the nitrite produced in control cells, which corresponded to 14.4±1.8 μM and controls were expressed as 100% (n=3). Statistical significance of the nitrite released from ET-1 (100 nM) treatment versus the control are denoted with an asterisk (“*”). Statistical significance of the nitrite released from PD-142893+ET-1 (100 nM) treatment versus that of ET-1 (100 nM) are denoted as a double asterisk (“**”) The statistical differenced were determined by one-way ANOVA and Student-Newman-Keuls multiple comparison test (p<0.05). Thus, addition of ET-1 increased the nitrite levels nearly 2-fold when compared to control cells or cells treated with PD-142893.
# rat optic nerve = assay: Anterograde axonal transport in rat optic nerve after intravitreal injection (35S-methionine pulse label); type: in vivo; conditions: 28 hour ISI, 2 mmol dose, p>0.999, ANOVA, N=7
# From the text: Newly synthesized proteins undergoing anterograde axonal transport in the optic nerve were pulse-labeled in either the presence or absence of endothelin as modified from previously published methods (van Biesen et al., 1995). Modifications to previously published methods were minimal and involved the replacement of a distilled water vehicle for resuspension of radiolabeled precursors with either HEPES buffered ET-1 or HEPES vehicle buffer alone. ^35S-Methionine (Easytag EXPRESS PROTEIN LABELING MIX, Dupont-NEN Life Sciences, Boston, Mass.) was lyophilized and resuspended in either vehicle alone (10 mM HEPES, pH 7.4, Sigma Chemical Co., St Louis, Mo.) or in vehicle containing 500 μM ET-1 (Bachem, Belmont, Calif.). Rats were anesthetized by Metofane inhalation, and 0.8 mCi (4 μl) of radiolabel in vehicle either plus or minus ET-1 (final dose 2 mmols), was injected into the vitreous of the left eye using a 30 gauge needle attached to a Hamilton syringe (microliter #710, 22s gauge, Hamilton Co., Reno, Nev.) by polyethylene tubing (PE-20, Clay Adams Brand, Becton Dickson and Co., Sparks, Md.) (van Biesen et al., 1995). In one experiment, ET-3 was substituted for ET-1, using the same methods (2 mmol dose, 28 hour ISI, N=7 for controls, N=7 for experimentals). […] One minute after injection, all retinas appeared normal in color. (Based upon these initial observations, further observations of the retinas were not performed). Information on the dose-related effect(s) of intravitreal ET-1 in this species (i.e. rat) were unavailable, and physiological/pathological concentrations of endothelin in the optic nerve head's microenvironment are generally unknown. Therefore, dose selection was made on the basis of a small pilot study, using these methods and measuring the total pulse-labeled protein axonally transported into the rat optic nerve. (An N of 3 rats in every group was used only for the pilot study, 4 hour ISI, data not shown). […] However, significant effects on axonal transport (4 hour ISI) were only seen in the pilot study for the 2 mmol dose. […] Possible effect(s) on non-assayed ocular tissues were not considered in dose selection, as data on these were unavailable for either acute or chronic intravitreal ET-1 administration, in rats.
# This technique was employed to determine if endothelin-1 also affected the axonal transport in the optic nerve of rats, which is severely compromised in glaucoma. Harvest and preparation of pulse-labeled optic nerves in animals, wherein animals were anesthetized with metofane at specified times after injection and sacrificed by decapitation. Injection-sacrifice intervals were selected based upon the published characterizations of anterograde axonal transport in rat optic nerve for specific marker proteins associated with specific classes of axonally transported materials (Table 4) (Elluru et al., 1995; Garner and Lasek, 1981; Garner and Lasek, 1982; Jahn et al., 1985). Seven vehicle-treated animals and seven endothelin-treated animals were sacrificed at each of the specified times (4, 24, 28, 32, 36 hours and 4, 21 days). Optic nerves were removed, flash frozen with crushed dry ice, and sectioned frozen. Nerves were sectioned to aid complete homogenization, and to provide additional data for future studies. The frozen sections (2 mm in length) were numbered as segments 1-4 (from proximal to distal), and glass-on glass homogenized in 100 μlof BUST sample buffer (2% β-mercaptoethanol, 8M urea, 1% SDS, 0.1M Tris, 0.02% phenol red, pH 7.4). A 25% aliquot of each homogenized segment was counted in a liquid scintillation counter, and counts were corrected for decay, quench, and counting efficiency.
molecule,measurement,setting,value
O=P(O)(O)CN[C@@H](Cc1ccc(-c2ccccc2)cc1)c1nn[nH]n1 [CGS 26303],decrease in 125I ET-1,"ECE-1 [1]; rat lung plasma membrane fraction, 180 minutes, vs control",56%
same,fmoles 125I ET-1 produced/mg protein/180 min,"ECE-1 [1]; rat lung tissue plasma membrane fraction, 100 μM CGS-26303, 180 min, 37° C., control 25 ± 1",11 ± 4* fmoles ^125I ET-1 produced/mg protein/180 min
same,fmoles 125I ET-1 produced/mg protein/180 min,"ECE-1 [2]; HNPE cells plasma membrane fraction, 100 μM CGS-26303, 180 min, 37° C., control 27 ± 1",12 ± 2* fmoles ^125I ET-1 produced/mg protein/180 min
same,decrease in 125I ET-1 production,"ECE-1 [2]; HNPE plasma membrane fraction, 180 minute time period, vs control",55%
"N-Acetyl-b-phenyl D-Phy-Leu-Asp-Ile-Ile-Trp ({Ac-dPhe(β-Ph)}-LDIIW) [PD-142893, ETA/B receptor antagonist]","nitrite production, PD-142893 + ET-1",[3],decrease in nitrite production
"ET-3: ETB-receptor-selective agonist, endothelin isopeptide (CTCFTYKDKECVYYCHLDIIW; ends and bridges not checked; cysteine pairing not given here; UniProt P14138 97-117, looked up)",effect of intravitreal ET-3 on anterograde axonal transport compared with ET-1,rat optic nerve,no significant difference between ET-1 and ET-3

# Source: patent publication US20030176356A1, “Endothelin antagonists and endothelin-converting enzyme inhibitors for the treatment of glaucoma” (University of North Texas Health Science Center, priority 2001, published 2003)
